Data published in the supplement of paper PMC10307832.

Legend:
Assay in all cases: relative viability (nuclei count vs DMSO), 5 days (fraction); higher = more cells survive
BEN = test system: BEN
Summary of the method: (§1)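 Relative viability divides the nuclei count in treated wells by that in vehicle wells. Lung cancer cell lines were seeded in 1536-well plates, dosed by pin tool the next day, and fixed and stained after 5 days in one step with final 0.05% Triton X-100, 1% formaldehyde and 1 ug/ml Hoechst. Dosing was a single drug or a fixed anchor-drug dose plus five library-drug doses (not always all listed) in √10 steps, and values are medians of duplicate plates imaged at 4×.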

NCI-H2085 = test system: NCI-H2085
Summary of the method: as §1

NCI-H1666 = test system: NCI-H1666
Summary of the method: as §1

NCI-H596 = test system: NCI-H596
Summary of the method: as §1

HARA = test system: HARA
Summary of the method: as §1

NCI-H1651 = test system: NCI-H1651
Summary of the method: as §1

CAL-12T = test system: CAL-12T
Summary of the method: as §1

NCI-H727 = test system: NCI-H727
Summary of the method: as §1

RERF-LC-KJ = test system: RERF-LC-KJ
Summary of the method: as §1

NCI-H1734 = test system: NCI-H1734
Summary of the method: as §1

NCI-H1975 = test system: NCI-H1975
Summary of the method: as §1

NCI-H2126 = test system: NCI-H2126
Summary of the method: as §1

NCI-H647 = test system: NCI-H647
Summary of the method: as §1

NCI-H1944 = test system: NCI-H1944
Summary of the method: as §1

NCI-H520 = test system: NCI-H520
Summary of the method: as §1

A-427 = test system: A-427
Summary of the method: as §1

NCI-H661 = test system: NCI-H661
Summary of the method: as §1

NCI-H838 = test system: NCI-H838
Summary of the method: as §1

NCI-H460 = test system: NCI-H460
Summary of the method: as §1

LOU-NH91 = test system: LOU-NH91
Summary of the method: as §1

LCLC-103H = test system: LCLC-103H
Summary of the method: as §1

ABC-1 = test system: ABC-1
Summary of the method: as §1

SW 900 = test system: SW 900
Summary of the method: as §1

Question: What does the source list for Cc1csc(=NC2CCCCC2)n1/N=C/c1ccc(O)c(O)c1O [MIM1] + O=C(CCCCCCC(=O)Nc1ccccc1)NO [Vorinostat] (partner 1 µM)?
Answer: relative viability (BEN; first compound 0.2 µM): 0.587; relative viability (BEN; first compound 0.6325 µM): 0.546; relative viability (BEN; first compound 2 µM): 0.562; relative viability (BEN; first compound 6.325 µM): 0.511; relative viability (BEN; first compound 20 µM): 0.394; relative viability (NCI-H2085; first compound 0.2 µM): 0.765; relative viability (NCI-H2085; first compound 0.6325 µM): 0.728; relative viability (NCI-H2085; first compound 2 µM): 0.763; relative viability (NCI-H2085; first compound 6.325 µM): 0.547; relative viability (NCI-H2085; first compound 20 µM): 0.563; relative viability (NCI-H1666; first compound 0.2 µM): 1.01; relative viability (NCI-H1666; first compound 0.6325 µM): 0.922; relative viability (NCI-H1666; first compound 2 µM): 1.08; relative viability (NCI-H1666; first compound 6.325 µM): 0.769; relative viability (NCI-H1666; first compound 20 µM): 0.477; relative viability (NCI-H596; first compound 0.2 µM): 0.719; relative viability (NCI-H596; first compound 0.6325 µM): 0.722; relative viability (NCI-H596; first compound 2 µM): 0.561; relative viability (NCI-H596; first compound 6.325 µM): 0.559; relative viability (NCI-H596; first compound 20 µM): 0.337; relative viability (HARA; first compound 0.2 µM): 0.523; relative viability (HARA; first compound 0.6325 µM): 0.467; relative viability (HARA; first compound 2 µM): 0.56; relative viability (HARA; first compound 6.325 µM): 0.511; relative viability (HARA; first compound 20 µM): 0.0696; relative viability (NCI-H1651; first compound 0.2 µM): 0.509; relative viability (NCI-H1651; first compound 0.6325 µM): 0.408; relative viability (NCI-H1651; first compound 2 µM): 0.519; relative viability (NCI-H1651; first compound 6.325 µM): 0.395; relative viability (NCI-H1651; first compound 20 µM): 0.51; relative viability (CAL-12T; first compound 0.2 µM): 0.765; relative viability (CAL-12T; first compound 0.6325 µM): 0.752; relative viability (CAL-12T; first compound 2 µM): 0.801; relative viability (CAL-12T; first compound 6.325 µM): 0.588; relative viability (CAL-12T; first compound 20 µM): 0.595; relative viability (NCI-H727; first compound 0.2 µM): 1.29; relative viability (NCI-H727; first compound 0.6325 µM): 1.16; relative viability (NCI-H727; first compound 2 µM): 1.15; relative viability (NCI-H727; first compound 6.325 µM): 1.06; relative viability (NCI-H727; first compound 20 µM): 0.607; relative viability (RERF-LC-KJ; first compound 0.2 µM): 0.616; relative viability (RERF-LC-KJ; first compound 0.6325 µM): 0.558; relative viability (RERF-LC-KJ; first compound 2 µM): 0.507; relative viability (RERF-LC-KJ; first compound 6.325 µM): 0.317; relative viability (RERF-LC-KJ; first compound 20 µM): 0.225; relative viability (NCI-H1734; first compound 0.2 µM): 0.911; relative viability (NCI-H1734; first compound 0.6325 µM): 0.582; relative viability (NCI-H1734; first compound 2 µM): 0.757; relative viability (NCI-H1734; first compound 6.325 µM): 0.442; relative viability (NCI-H1734; first compound 20 µM): 0.125; relative viability (NCI-H1975; first compound 0.2 µM): 0.682; relative viability (NCI-H1975; first compound 0.6325 µM): 0.708; relative viability (NCI-H1975; first compound 2 µM): 0.644; relative viability (NCI-H1975; first compound 6.325 µM): 0.239; relative viability (NCI-H1975; first compound 20 µM): 0.204; relative viability (NCI-H2126; first compound 0.2 µM): 0.745; relative viability (NCI-H2126; first compound 0.6325 µM): 0.454; relative viability (NCI-H2126; first compound 2 µM): 0.838; relative viability (NCI-H2126; first compound 6.325 µM): 0.711; relative viability (NCI-H2126; first compound 20 µM): 0.404; relative viability (NCI-H647; first compound 0.2 µM): 0.655; relative viability (NCI-H647; first compound 0.6325 µM): 0.61; relative viability (NCI-H647; first compound 2 µM): 0.614; relative viability (NCI-H647; first compound 6.325 µM): 0.454; relative viability (NCI-H647; first compound 20 µM): 0.104; relative viability (NCI-H1944; first compound 0.2 µM): 0.548; relative viability (NCI-H1944; first compound 0.6325 µM): 0.499; relative viability (NCI-H1944; first compound 2 µM): 0.39; relative viability (NCI-H1944; first compound 6.325 µM): 0.428; relative viability (NCI-H1944; first compound 20 µM): 0.228; relative viability (NCI-H520; first compound 0.2 µM): 0.64; relative viability (NCI-H520; first compound 0.6325 µM): 0.744; relative viability (NCI-H520; first compound 2 µM): 0.833; relative viability (NCI-H520; first compound 6.325 µM): 0.538; relative viability (NCI-H520; first compound 20 µM): 0.308; relative viability (A-427; first compound 0.2 µM): 0.858; relative viability (A-427; first compound 0.6325 µM): 0.663; relative viability (A-427; first compound 2 µM): 0.849; relative viability (A-427; first compound 6.325 µM): 0.745; relative viability (A-427; first compound 20 µM): 0.312; relative viability (NCI-H661; first compound 0.2 µM): 0.764; relative viability (NCI-H661; first compound 0.6325 µM): 0.748; relative viability (NCI-H661; first compound 2 µM): 0.742; relative viability (NCI-H661; first compound 6.325 µM): 0.406; relative viability (NCI-H661; first compound 20 µM): 0.292; relative viability (NCI-H838; first compound 0.2 µM): 0.717; relative viability (NCI-H838; first compound 0.6325 µM): 0.747; relative viability (NCI-H838; first compound 2 µM): 0.675; relative viability (NCI-H838; first compound 6.325 µM): 0.413; relative viability (NCI-H838; first compound 20 µM): 0.197; relative viability (NCI-H460; first compound 0.2 µM): 0.703; relative viability (NCI-H460; first compound 0.6325 µM): 0.746; relative viability (NCI-H460; first compound 2 µM): 0.411; relative viability (NCI-H460; first compound 6.325 µM): 0.117; relative viability (NCI-H460; first compound 20 µM): 0.0234; relative viability (LOU-NH91; first compound 0.2 µM): 0.672; relative viability (LOU-NH91; first compound 0.6325 µM): 0.822; relative viability (LOU-NH91; first compound 2 µM): 0.699; relative viability (LOU-NH91; first compound 6.325 µM): 0.359; relative viability (LOU-NH91; first compound 20 µM): 0.298; relative viability (LCLC-103H; first compound 0.2 µM): 0.731; relative viability (LCLC-103H; first compound 0.6325 µM): 0.39; relative viability (LCLC-103H; first compound 2 µM): 0.768; relative viability (LCLC-103H; first compound 6.325 µM): 0.48; relative viability (LCLC-103H; first compound 20 µM): 0.342; relative viability (ABC-1; first compound 0.2 µM): 1.42; relative viability (ABC-1; first compound 0.6325 µM): 0.87; relative viability (ABC-1; first compound 2 µM): 0.994; relative viability (ABC-1; first compound 6.325 µM): 0.497; relative viability (ABC-1; first compound 20 µM): 0.247; relative viability (SW 900; first compound 0.2 µM): 0.45; relative viability (SW 900; first compound 0.6325 µM): 0.632; relative viability (SW 900; first compound 2 µM): 0.549; relative viability (SW 900; first compound 6.325 µM): 0.175; relative viability (SW 900; first compound 20 µM): 0.187
